Experimental data reported in patent publication US8202995B2, “Pharmaceutically acceptable salts of aporphine derivatives and carboxyl group-containing agents and methods for preparing the same” (Standard Chem. & Pharm. Co., Ltd., priority 2008, dated 2012).

Tests used:
[1] = tested on: vascular smooth muscle cells of rats; assay: Protecting activity in vascular smooth muscle cells against H2O2 (MTT); assay type: cell-based, rat; conditions: 10 μM compound, 30 minutes before H2O2 200 μM for 24 hours, FIG. 17
Procedure: The vascular smooth muscle cells of rats (2×10^4 cells/mL×1 mL) were quantitatively seeded in 24-well plates, and cultured in Dulbecco's modified Eagle medium (DMEM) with 10% fetal bovine serum (FBS) for 24 hours to achieve cell adhesion. After cell adhesion, the DMEM medium with 10% fetal bovine serum was replaced with a fresh DMEM medium with 0.1% fetal bovine serum to perform cell culture for 48 hours.
Next, each test compound was added in the cultures (final concentration: 0.1, 1, 10 μM). After 30 minutes, H2O2 (200 μM) was added therein to perform reaction for 24 hours in an incubator. Subsequently, in a light-proof environment, MTT (100 μL) was added into each well to perform reaction at 37° C. for 3 hours. The supernatant liquor was removed and then isopropanol (500 μL) was added, followed by shaking for 10 minutes. After standing for 10 minutes, supernatant liquor (200 μL) was transferred into 96-well plates. Finally, the absorbance value (O.D.) was monitored at 540 nm (OD540) and 630 nm (OD630). Based on the measured absorbance values (OD540-OD630), the effect of these test compounds on cell growth can be evaluated, as shown in FIG. 3.

[2] = Protection from peroxy radical-induced damage, Method A (β-phycoerythrin fluorescence, AAPH); assay type: biochemical; conditions: test compound 5×10^−6 M, AAPH 25 mM, β-phycoerythrin 5 nM, pH 7.4, FIG. 9
Text: In order to evaluate the effect of test compounds in scavenging hydrophilic peroxy radical, the experiment was executed with reference to the method described by Tsuchiya et al. (Methods Enzymol 1992, 213: 460-472). In the experiment, peroxides will react with fluorescent substances and thus inflect observed fluorescence intensity. Thereby, the effect of test compounds in free radical scavenging can be evaluated by measuring the variation of the fluorescence intensity after the addition of test compounds.
First, to a silicate tube was added a phosphate solution (2 ml, pH 7.4), followed by the addition of β-phycoerythrin (5 nM) to increase relative fluorescence intensity. After 5 minutes, 2,2′-azobis (2-amidinopropane)dihydrochloride (25 mM, AAPH) was added therein. Subsequently, through a fluorescent spectrometry (Shimadzu RF-5301PC, Japan), the fluorescence intensity of β-phycoerythrin was measured by excitation at 540 nm and emission at 570 nm. Then, the test compounds (5×10^−6 M) was further added therein to observe the variation of the fluorescence intensity, in which 0.1% DMSO was taken as a control group.

[3] = tested on: lipid peroxidase, Dunkin Hartley Guinea pig liver microsomes; assay: Activity in inhibiting lipid peroxidase (malondialdehyde quantitation); assay type: biochemical; conditions: 10 μM, 20 minutes/37° C.
Procedure: The assay was executed with reference to the method described in Biochem Biophys Res Commun. Mar. 28, 1986; 135(3): 1015-21.
• (a) Source: Dunkin Hartley Guinea pig liver microsomes • (b) Substrate: Polyunsaturated fatty acid • (c) Vehicle: 1% DMSO • (d) Pre-Incubation Time/Temp: 15 minutes/37° C. • (e) Incubation Time/Temp: 20 minutes/37° C. • (f) Incubation Buffer: 0.25 M Potassium Phosphate, pH 7.4, 0.1 mM EDTA • (g) Quantitation Method: Spectrophotometric quantitation of Malondialdehyde

[4] = Oxygen radical absorbing capacity, Method B (fluorescenin fluorescence decay, AAPH); assay type: biochemical; conditions: test substance 1 μM, 18.75 mM AAPH, 0.06 μM fluorescenin, 37° C., pH 7.4, FIGS. 10-16
Procedure: In order to evaluate the oxygen radical absorbing capacity of test compounds. The automated assay was carried out as described in a previous report by Gillespie and co-workers (Gillespie et al., 2007). The experiment was conducted at 37° C. under pH 7.4 condition with a blank sample in parallel. Briefly, 2, 2′-azobis (2-amidinopropane) dihydrochloride (AAPH) was used as a peroxyl generator. The final reaction mixture for each black microplat in a 96-well microplate assay contained 0.06 μM fluorescenin, 18.75 mM AAPH and appropriate test substance (1 μM) in 75 mM phosphate buffer. Test substance was directly dissolved in DMSO and diluted with 75 mM potassium phosphate buffer (pH 7.4) for analysis. The analyzer was programmed to record the fluorescence of fluorescenin every minute after the addition of AAPH. All fluorescent measurements are expressed relative to the initial reading (excitation at 485 nm and emission at 530 nm) on a FLUOstar Galaxy plate reader (Roche Diagnostic System Inc., Branchburg, N.J.). Raw data were exported from the Fluostar Galaxy software to an Excel (Microsoft, Roselle, Ill.) sheet for further calculations. All the reaction mixtures were prepared in duplicate, and at least three independent assays were performed for each sample. (Gillespie, K M et al., Nature Protocols 2007; 2: 867-870.)

[5] = Free radical scavenging of 1,1-diphenyl-2-picryl-hydrazyl (DPPH); assay type: biochemical; conditions: DPPH 100 μM, 30 min, absorbance at 517 nm, FIGS. 2-8
Procedure: After 30 min, the absorbance (O.D.) was monitored spectrophotometrically at 517 nm. The activity in inhibiting free radical DPPH results in the decrease of absorbance.

[6] = HOPE (n=9297), patients with high cardiovascular risk; cited from earlier work
[7] = PROGRESS (n=6105), individuals with cerebrovascular disease; cited from earlier work

Row | Compound | activity in free radical scavenging of APPH in comparison with carboxyl group-containing agent alone and aporphine alone [4] | activity in free radical scavenging of DPPH in comparison with carboxyl group-containing agent alone and thaliporphine alone [5] | also measured
1 | COc1cc2c(cc1OC)-c1c(O)c(OC)cc3c1C(C2)N(CC(O)COc1ccccc1OC)CC3 (stereo not shown) [Compound 1] |  |  | inhibition of H2O2-induced damage to vascular smooth muscle cells [1]: significantly inhibited; protection of β-phycoerythin from peroxy radical AAPH-induced damage (fluorescence degradation) [2]: can protect β-phycoerythin; Inhibition (%) [3]: 64%
2 | CC(=O)NC(CS)C(=O)O.COc1cc2c(cc1O)CC1c3c(cc(OC)c(OC)c3-2)CCN1C (stereo not shown) [acetylcysteine salt of thaliporphine, Acetylcysteine salt of Thaliporphine] | much higher activity | much higher activity | 
3 | Captopril salt of Thaliporphine | much higher activity | much higher activity | 
4 | COc1cc2c(cc1OC)-c1c(OC)c(OC)cc3c1C(C2)N(C)CC3.O=C(O)C=Cc1ccc(Cn2ccnc2)cc1 (stereo not shown) [ozagrel salt of glaucine] | much higher activity |  | 
5 | COc1cc2c(cc1OC)-c1c(O)c(OC)cc3c1C(C2)N(CC(=O)Nc1c(C)cccc1C)CC3 (stereo not shown) [Compound 2] |  |  | inhibition of H2O2-induced damage to vascular smooth muscle cells [1]: slightly inhibited; protection of β-phycoerythin from peroxy radical AAPH-induced damage (fluorescence degradation) [2]: can protect β-phycoerythin; Inhibition (%) [3]: 70%
6 | nateglinide salt of thaliporphine | much higher activity | much higher activity | 
7 | salsalate salt of thaliporphine | much higher activity | much higher activity | 
8 | CCOC(=O)[C@H](CCc1ccccc1)N[C@@H](C)C(=O)N1[C@H](C(=O)O)C[C@@H]2CCC[C@@H]21 [ramipril] |  |  | reduction of composite outcome (cardiovascular death, myocardial infarction and cerebrovascular accident) [6]: 22%
9 | bezafibrate salt of thaliporphine | much higher activity | much higher activity | 
10 | Atorvastatin salt of Thaliporphine | much higher activity | much higher activity | 
11 | Telmisartan salt of Thaliporphine |  | much higher activity | 
12 | CCC[C@H](N[C@@H](C)C(=O)N1[C@H](C(=O)O)C[C@@H]2CCCC[C@@H]21)C(=O)OCC [perindopril] |  |  | reduction of recurrent stroke [7]: 28%
